Test results: patent publication US12064522B2, “Low temperature process for preparing silicon oxide coated pharmaceuticals” (priority 2020, dated 2024)

Test: Flowability (Flow Function, FF) of API particles
Type: physicochemical

Flowability (Flow Function; FF) of uncoated particles | SMILES
4.23 | CC(C)Cc1ccc(C(C)C(=O)O)cc1 (stereo not drawn) [ibuprofen]
10 | Cn1c(=O)c2[nH]cnc2n(C)c1=O [theophylline]
2.61 | CC(=O)Nc1ccc(O)cc1 [Acetaminophen]
